Patent publication US8987234B2, “Complex for treatment and/or prophylaxis of parasitic infections” (IPCA Laboratories Ltd., priority 2009, dated 2015)
One block for each compound: values may come before it.

Legend:
physchem = format: physicochemical
[1] = tablet formulation, Malarone label; cited from earlier work
[2] = Intrinsic dissolution/solubility under standard USP conditions (40% isopropyl alcohol with phosphate buffer pH 8.0); format: physicochemical
[3] = Comparative rat pharmacokinetic study, plasma analyzed by LC MS/MS; format: in vivo, albino Wistar rats
Method: Comparative pharmacokinetic study of complex of example-I at two doses with physical mixtures of Atovaquone and Proguanil hydrochloride (Malarone) was carried for profiling of bioavailability of Atovaquone, Proguanil and Cycloguanil from all three samples. Four groups of 13-14 weeks old five albino Wistar rats were made through random selection. Group I served as a vehicle control and received only 0.5% sodium carboxymethyl cellulose, group II and group III received two different doses of complex of Example I, and group IV received a physical mixture of Atovaquone and Proguanil hydrochloride (Malarone). The dose volume used for this study was 10 ml/Kg of body weight. Orbital sinus was used as blood collection site and the blood was collected in EDTA coated microcentrifuge tubes at different time points between 0 min (pre dose) to 240 hrs. Plasma samples were analyzed by LC MS/MS. Comparative pharmacokinetic profiles of Atovaquone, Proguanil and Cycloguanil are as given below in table 3, 4, and 5 respectively: […]

- pKa (physchem): 8.39
SMILES: O=C1C(O)=C([C@H]2CC[C@H](c3ccc(Cl)cc3)CC2)C(=O)c2ccccc21 [Atovaquone, trans-2-[4-(4-chlorophenyl)cyclohexyl]-3-hydroxy-1,4-naphthoquinone]
- absolute bioavailability of Atovaquone [1]: 23%

- % Dissolution Atovaquone ([2]; 1 Hrs.): 2.64%
- % Dissolution Proguanil ([2]; 1 Hrs.): 1.97%
- % Dissolution Atovaquone ([2]; 2 Hrs.): 5.61%
- % Dissolution Proguanil ([2]; 2 Hrs.): 3.64%
- % Dissolution Atovaquone ([2]; 3 Hrs.): 7.72%
- % Dissolution Proguanil ([2]; 3 Hrs.): 5.22%
- % Dissolution Atovaquone ([2]; 4 Hrs.): 9.75%
- % Dissolution Proguanil ([2]; 4 Hrs.): 6.38%
- intrinsic solubility of Atovaquone compared with physical mixture of Atovaquone-Proguanil ([2]; 40% isopropyl alcohol with phosphate buffer pH 8.0): almost doubled
- Atovaquone bioavailability increase versus corresponding ratio of physical mixture [3]: increased by at least two times
- AUC0-inf of Atovaquone ([3]; Atovaquone dose 6.166 mg/kg): 298501.894 ng/hrxml
- Cmax of Atovaquone ([3]; Atovaquone dose 6.166 mg/kg): 4925.009 ng/mL
- MRT of Atovaquone ([3]; Atovaquone dose 6.166 mg/kg): 39.240 h
- T1/2 of Atovaquone ([3]; Atovaquone dose 6.166 mg/kg): 26.833 h
- Tmax of Atovaquone ([3]; Atovaquone dose 6.166 mg/kg): 19.200 h
- Vd of Atovaquone ([3]; Atovaquone dose 6.166 mg/kg): 0.001 L/kg
- AUC0-inf of Atovaquone ([3]; Atovaquone dose 6.166 mg/kg (Table 3)): 298501.894 ± 117805.568 ng/hr × mL
- AUC0-inf of Atovaquone ([3]; Atovaquone dose 13.005 mg/kg): 472148.864 ng/hrxml
- Cmax of Atovaquone ([3]; Atovaquone dose 13.005 mg/kg): 6779.226 ng/mL
- MRT of Atovaquone ([3]; Atovaquone dose 13.005 mg/kg): 50.644 h
- T1/2 of Atovaquone ([3]; Atovaquone dose 13.005 mg/kg): 29.542 h
- Tmax of Atovaquone ([3]; Atovaquone dose 13.005 mg/kg): 12.8 h
- Vd of Atovaquone ([3]; Atovaquone dose 13.005 mg/kg): 0.001 L/kg
- AUC0-inf of Cycloguanil ([3]; Proguanil dose 4.2642 mg/kg): 38.910 ng/hrxml
- AUC0-inf of Proguanil ([3]; Proguanil dose 4.2642 mg/kg): 497.306 ng/hrxml
- Cl of Cycloguanil ([3]; Proguanil dose 4.2642 mg/kg): 0.118 L/kg/hr
- Cl of Proguanil ([3]; Proguanil dose 4.2642 mg/kg): 0.15 mL/min/kg
- Cmax of Cycloguanil ([3]; Proguanil dose 4.2642 mg/kg): 4.667 ng/ml
- Cmax of Proguanil ([3]; Proguanil dose 4.2642 mg/kg): 87.400 ng/mL
- MRT of Cycloguanil ([3]; Proguanil dose 4.2642 mg/kg): 5.753 hr
- MRT of Proguanil ([3]; Proguanil dose 4.2642 mg/kg): 5.581 h
- T1/2 of Cycloguanil ([3]; Proguanil dose 4.2642 mg/kg): 5.620 hr
- T1/2 of Proguanil ([3]; Proguanil dose 4.2642 mg/kg): 4.779 h
- Tmax of Cycloguanil ([3]; Proguanil dose 4.2642 mg/kg): 3.200 hr
- Tmax of Proguanil ([3]; Proguanil dose 4.2642 mg/kg): 2.800 h
- Vd of Cycloguanil ([3]; Proguanil dose 4.2642 mg/kg): 0.873 L/Kg
- Vd of Proguanil ([3]; Proguanil dose 4.2642 mg/kg): 0.061 L/kg
- AUC0-inf of Cycloguanil ([3]; Proguanil dose 8.995 mg/kg): 34.797 ng/hrxml
- AUC0-inf of Proguanil ([3]; Proguanil dose 8.995 mg/kg): 485.239 ng/hrxml
- Cl of Cycloguanil ([3]; Proguanil dose 8.995 mg/kg): 0.261 L/kg/hr
- Cl of Proguanil ([3]; Proguanil dose 8.995 mg/kg): 0.317 mL/min/kg
- Cmax of Cycloguanil ([3]; Proguanil dose 8.995 mg/kg): 6.954 ng/ml
- Cmax of Proguanil ([3]; Proguanil dose 8.995 mg/kg): 94.515 ng/mL
- MRT of Cycloguanil ([3]; Proguanil dose 8.995 mg/kg): 5.106 hr
- MRT of Proguanil ([3]; Proguanil dose 8.995 mg/kg): 4.933 h
- T1/2 of Cycloguanil ([3]; Proguanil dose 8.995 mg/kg): 4.406 hr
- T1/2 of Proguanil ([3]; Proguanil dose 8.995 mg/kg): 13.149 h
- Tmax of Cycloguanil ([3]; Proguanil dose 8.995 mg/kg): 2.00 hr
- Tmax of Proguanil ([3]; Proguanil dose 8.995 mg/kg): 1.15 h
- Vd of Cycloguanil ([3]; Proguanil dose 8.995 mg/kg): 1.618 L/Kg
- Vd of Proguanil ([3]; Proguanil dose 8.995 mg/kg): 0.349 L/kg
SMILES: CC(C)NC(=N)NC(=N)Nc1ccc(Cl)cc1.O=C1C(O)=C([C@H]2CC[C@H](c3ccc(Cl)cc3)CC2)C(=O)c2ccccc21 [Complex, trans-Atovaquone-Proguanil complex (1:1)]
